Tests used:
BTK = BTK (Homo sapiens, UniProt Q06187); assay: BTK Enzyme Assay; format: biochemical; settings: 1 uM compound; read-out: BTK (% inh @ 1 uM)
Description: The following TABLE II lists compounds representative of the invention and their activity in BTK assays. In these assays, the following grading was used: A: >30% inhibition @1 μM; B: <30% inhibition @1 μM.

EGFR T790M = EGFR T790M (Homo sapiens, UniProt P00533, T790M); assay: EGFR Enzyme Assay; format: biochemical; settings: 1 uM compound, read-out: T790M (% inh @ 1 uM)
EGFR T790M, sequence (P00533 25-1210 T790M): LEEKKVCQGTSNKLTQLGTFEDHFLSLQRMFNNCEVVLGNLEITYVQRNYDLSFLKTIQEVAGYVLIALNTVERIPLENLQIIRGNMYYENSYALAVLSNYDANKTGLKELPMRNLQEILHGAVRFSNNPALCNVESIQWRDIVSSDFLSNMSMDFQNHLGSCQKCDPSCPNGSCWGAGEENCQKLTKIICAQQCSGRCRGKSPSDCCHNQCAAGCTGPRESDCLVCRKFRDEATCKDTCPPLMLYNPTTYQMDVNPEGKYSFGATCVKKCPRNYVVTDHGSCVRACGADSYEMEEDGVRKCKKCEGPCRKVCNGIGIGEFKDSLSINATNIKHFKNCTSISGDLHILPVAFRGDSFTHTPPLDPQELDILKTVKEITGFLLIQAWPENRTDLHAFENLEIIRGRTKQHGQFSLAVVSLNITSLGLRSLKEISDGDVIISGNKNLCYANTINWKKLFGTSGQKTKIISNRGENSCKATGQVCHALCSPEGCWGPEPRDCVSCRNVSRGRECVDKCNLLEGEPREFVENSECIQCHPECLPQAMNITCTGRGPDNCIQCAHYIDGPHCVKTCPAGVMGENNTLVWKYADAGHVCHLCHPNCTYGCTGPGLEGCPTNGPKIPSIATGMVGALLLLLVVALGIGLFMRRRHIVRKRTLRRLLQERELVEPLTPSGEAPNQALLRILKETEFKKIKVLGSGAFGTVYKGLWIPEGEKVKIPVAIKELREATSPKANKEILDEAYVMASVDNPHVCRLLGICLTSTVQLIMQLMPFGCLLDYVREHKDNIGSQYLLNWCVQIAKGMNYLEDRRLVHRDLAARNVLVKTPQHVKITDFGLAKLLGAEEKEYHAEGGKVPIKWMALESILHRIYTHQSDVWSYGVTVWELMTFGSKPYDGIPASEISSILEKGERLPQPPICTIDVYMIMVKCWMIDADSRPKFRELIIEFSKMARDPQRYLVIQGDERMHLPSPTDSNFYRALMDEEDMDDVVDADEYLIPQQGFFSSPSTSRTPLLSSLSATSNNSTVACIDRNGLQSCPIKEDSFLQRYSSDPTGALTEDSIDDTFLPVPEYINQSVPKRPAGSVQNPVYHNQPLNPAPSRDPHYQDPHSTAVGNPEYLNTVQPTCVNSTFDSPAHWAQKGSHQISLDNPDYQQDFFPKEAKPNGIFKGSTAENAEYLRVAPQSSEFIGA
Description: The following TABLE III lists compounds representative of the invention and their activity in EGFR assays. In these assays, the following grading was used: A: >50% @1 μM; B: <50% @ 1 μM.

BTK, sequence (Q06187 whole entry): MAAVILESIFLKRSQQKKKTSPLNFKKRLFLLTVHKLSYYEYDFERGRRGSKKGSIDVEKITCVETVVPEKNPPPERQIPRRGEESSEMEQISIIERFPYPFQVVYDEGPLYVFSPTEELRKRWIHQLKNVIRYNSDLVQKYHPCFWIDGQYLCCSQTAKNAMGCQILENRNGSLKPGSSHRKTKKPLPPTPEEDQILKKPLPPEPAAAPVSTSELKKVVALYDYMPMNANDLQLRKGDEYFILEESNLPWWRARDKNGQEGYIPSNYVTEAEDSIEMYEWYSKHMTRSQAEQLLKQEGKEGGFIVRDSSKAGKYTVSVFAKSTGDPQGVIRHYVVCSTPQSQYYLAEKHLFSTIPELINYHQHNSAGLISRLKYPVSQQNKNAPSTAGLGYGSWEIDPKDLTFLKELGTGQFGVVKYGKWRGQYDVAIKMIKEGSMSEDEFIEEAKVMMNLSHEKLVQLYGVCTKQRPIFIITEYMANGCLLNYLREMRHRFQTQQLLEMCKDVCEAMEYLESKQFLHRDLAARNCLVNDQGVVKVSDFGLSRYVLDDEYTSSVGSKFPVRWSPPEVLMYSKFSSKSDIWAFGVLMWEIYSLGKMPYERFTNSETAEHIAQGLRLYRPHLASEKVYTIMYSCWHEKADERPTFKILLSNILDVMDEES

SMILES	inhibition at 1 µM (BTK)	inhibition at 1 µM (EGFR T790M)
C=CC(=O)Nc1cc(Nc2nc(-c3c[nH]c4ccccc34)c3sccc3n2)c(OC)cc1N(C)CCN(C)C [Compound 1, N-[2-[2-(dimethylamino)ethyl-methyl-amino]-5-[[4-(1H-indol-3-yl)thieno[3,2-d]pyrimidin-2-yl]amino]-4-methoxy-phenyl]prop-2-enamide]	> 30%	> 50%
C=CC(=O)Nc1cc(Nc2nc(-c3c[nH]c4ccccc34)c3sccc3n2)c(OC)cc1N1CCC(N(C)C)CC1 [Compound 2, N-[2-[4-(dimethylamino)-1-piperidyl]-5-[[4-(1H-indol-3-yl)thieno[3,2-d]pyrimidin-2-yl]amino]-4-methoxy-phenyl]prop-2-enamide]	> 30%	> 50%
C=CC(=O)Nc1cc(NC2=NC(c3cccc(NC(C)(C)C)c3)C3SC=CC3=N2)c(OC)cc1N(C)C (centres unmarked) [Compound 5, N-[5-[[4-[3-(tert-butylamino)phenyl]-4,4a-dihydrothieno[3,2-d]pyrimidin-2-yl]amino]-2-(dimethylamino)-4-methoxy-phenyl]prop-2-enamide]	> 30%	> 50%
C=CC(=O)Nc1cc(NC2=NC(c3cccc(N(C)C)c3)C3SC=CC3=N2)c(OC)cc1N1CCN(C)CC1 (centres unmarked) [Compound 6, N-[5-[[4-[3-(dimethylamino)phenyl]-4,4a-dihydrothieno[3,2-d]pyrimidin-2-yl]amino]-4-methoxy-2-(4-methylpiperazin-1-yl)phenyl]prop-2-enamide]	> 30%	< 50%
C=CC(=O)Nc1cc(NC2=NC(c3cccc(NC)c3)C3SC=CC3=N2)c(OC)cc1N(C)CCN1CCOCC1 (centres unmarked) [Compound 9, N-[4-methoxy-5-[[4-[3-(methylamino)phenyl]-4,4a-dihydrothieno[3,2-d]pyrimidin-2-yl]amino]-2-[methyl(2-morpholinoethyl)amino]phenyl]prop-2-enamide]	> 30%	< 50%
C=CC(=O)Nc1cc(NC2=NC(c3cccc(N(C)C)c3)C3SC=CC3=N2)c(OC)cc1N1CCOCC1 (centres unmarked) [Compound 10, N-[5-[[4-[3-(dimethylamino)phenyl]-4,4a-dihydrothieno[3,2-d]pyrimidin-2-yl]amino]-4-methoxy-2-morpholino-phenyl]prop-2-enamide]	> 30%	> 50%
C=CC(=O)Nc1cc(NC2=NC(c3ccccc3)C3SC=CC3=N2)c(OC)cc1N1CCN(C)CC1 (centres unmarked) [Compound 18, N-[4-methoxy-2-(4-methylpiperazin-1-yl)-5-[(4-phenyl-4,4a-dihydrothieno[3,2-d]pyrimidin-2-yl)amino]phenyl]prop-2-enamide]	< 30%	> 50%
C=CC(=O)Nc1cc(Nc2nc(-c3cccc(N(C)C)c3)c3sccc3n2)c(OC)cc1N1CCN(C)CC1 [Compound 24, N-[5-[[4-[3-(dimethylamino)phenyl]thieno[3,2-d]pyrimidin-2-yl]amino]-4-methoxy-2-(4-methylpiperazin-1-yl)phenyl]prop-2-enamide]	> 30%	< 50%
C=CC(=O)Nc1cc(Nc2nc(-c3ccccc3)c3sccc3n2)c(OC)cc1N1CCN(C)CC1 [Compound 26, N-[4-methoxy-2-(4-methylpiperazin-1-yl)-5-[(4-phenylthieno[3,2-d]pyrimidin-2-yl)amino]phenyl]prop-2-enamide]	> 30%	< 50%
C=CC(=O)Nc1cc(Nc2nc(-c3cccc(NC)c3)c3ccsc3n2)c(OC)cc1N(C)CCN(C)C [Compound 33, N-[2-[2-(dimethylamino)ethyl-methyl-amino]-4-methoxy-5-[[4-[3-(methylamino)phenyl]thieno[2,3-d]pyrimidin-2-yl]amino]phenyl]prop-2-enamide]	< 30%	–
C=CC(=O)Nc1cc(Nc2nc(-c3cn(C)c4ccccc34)c3sccc3n2)c(OC)cc1OCCN1CCOCC1 [Compound 34, N-[4-methoxy-5-[[4-(1-methylindol-3-yl)thieno[3,2-d]pyrimidin-2-yl]amino]-2-(2-morpholinoethoxy)phenyl]prop-2-enamide]	< 30%	–
C=CC(=O)Nc1cc(Nc2nc(-c3cccc(NC)c3)c3sccc3n2)c(OC)cc1OCCN1CCOCC1 [Compound 35, N-[4-methoxy-5-[[4-[3-(methylamino)phenyl]thieno[3,2-d]pyrimidin-2-yl]amino]-2-(2-morpholinoethoxy)phenyl]prop-2-enamide]	< 30%	> 50%
C=CC(=O)Nc1cc(Nc2nc(-c3cn(C)c4ccccc34)c3sccc3n2)c(OC)cc1N1CCOCC1 [Compound 36, N-[4-methoxy-5-[[4-(1-methylindol-3-yl)thieno[3,2-d]pyrimidin-2-yl]amino]-2-morpholino-phenyl]prop-2-enamide]	> 30%	< 50%
C=CC(=O)Nc1cc(Nc2nc(-c3ccc(NC)cc3)c3sccc3n2)c(OC)cc1N1CCOCC1 [Compound 37, N-[4-methoxy-5-[[4-[4-(methylamino)phenyl]thieno[3,2-d]pyrimidin-2-yl]amino]-2-morpholino-phenyl]prop-2-enamide]	> 30%	> 50%
C=CC(=O)Nc1cc(Nc2nc(-c3cn(C)c4ccccc34)c3sccc3n2)c(OC)cc1N(C)C [Compound 38, N-[2-(dimethylamino)-4-methoxy-5-[[4-(1-methylindol-3-yl)thieno[3,2-d]pyrimidin-2-yl]amino]phenyl]prop-2-enamide]	> 30%	–
C=CC(=O)Nc1cc(Nc2nc(-c3ccc(NC)cc3)c3sccc3n2)c(OC)cc1N(C)CC [Compound 39, N-[2-[ethyl(methyl)amino]-4-methoxy-5-[[4-[4-(methylamino)phenyl]thieno[3,2-d]pyrimidin-2-yl]amino]phenyl]prop-2-enamide]	> 30%	–
C=CC(=O)Nc1cc(Nc2nc(-c3ccccc3)c3ccsc3n2)c(OC)cc1N(C)CC [Compound 40, N-[2-[ethyl(methyl)amino]-4-methoxy-5-[(4-phenylthieno[2,3-d]pyrimidin-2-yl)amino]phenyl]prop-2-enamide]	< 30%	–
C=CC(=O)Nc1cc(Nc2nc(-c3cccc(NC)c3)c3ccsc3n2)c(OC)cc1N(C)CC [Compound 41, N-[2-[ethyl(methyl)amino]-4-methoxy-5-[[4-[3-(methylamino)phenyl]thieno[2,3-d]pyrimidin-2-yl]amino]phenyl]prop-2-enamide]	> 30%	> 50%
C=CC(=O)Nc1cc(Nc2nc(-c3ccccc3)c3ccsc3n2)c(OC)cc1N1CCN(C)CC1 [Compound 42, N-[4-methoxy-2-(4-methylpiperazin-1-yl)-5-[(4-phenylthieno[2,3-d]pyrimidin-2-yl)amino]phenyl]prop-2-enamide]	< 30%	–
C=CC(=O)Nc1cc(Nc2nc(-c3cccc4ccn(C)c34)c3sccc3n2)c(OC)cc1N1CCN(C)CC1 [Compound 44, N-[4-methoxy-5-[[4-(1-methylindol-7-yl)thieno[3,2-d]pyrimidin-2-yl]amino]-2-(4-methylpiperazin-1-yl)phenyl]prop-2-enamide]	> 30%	–
C=CC(=O)Nc1cc(Nc2nc(-c3cccc4cc[nH]c34)c3sccc3n2)c(OC)cc1N1CCN(C)CC1 [Compound 45, N-[5-[[4-(1H-indol-7-yl)thieno[3,2-d]pyrimidin-2-yl]amino]-4-methoxy-2-(4-methylpiperazin-1-yl)phenyl]prop-2-enamide]	< 30%	–
C=CC(=O)Nc1cc(Nc2nc(-c3ccn(C)c3)c3ccsc3n2)c(OC)cc1N1CCN(C)CC1 [Compound 46, N-[4-methoxy-2-(4-methylpiperazin-1-yl)-5-[[4-(1-methylpyrrol-3-yl)thieno[2,3-d]pyrimidin-2-yl]amino]phenyl]prop-2-enamide]	> 30%	–
C=CC(=O)Nc1cc(Nc2nc(-c3cc[nH]c3)c3ccsc3n2)c(OC)cc1N1CCN(C)CC1 [Compound 47, N-[4-methoxy-2-(4-methylpiperazin-1-yl)-5-[[4-(1H-pyrrol-3-yl)thieno[2,3-d]pyrimidin-2-yl]amino]phenyl]prop-2-enamide]	< 30%	–
C=CC(=O)Nc1cc(Nc2nc(-c3ccn(C)c3)c3sccc3n2)c(OC)cc1N1CCN(C)CC1 [Compound 48, N-[4-methoxy-2-(4-methylpiperazin-1-yl)-5-[[4-(1-methylpyrrol-3-yl)thieno[3,2-d]pyrimidin-2-yl]amino]phenyl]prop-2-enamide]	> 30%	–
C=CC(=O)Nc1cc(Nc2nc(-c3cc[nH]c3)c3sccc3n2)c(OC)cc1N1CCN(C)CC1 [Compound 49, N-[4-methoxy-2-(4-methylpiperazin-1-yl)-5-[[4-(1H-pyrrol-3-yl)thieno[3,2-d]pyrimidin-2-yl]amino]phenyl]prop-2-enamide]	> 30%	–
C=CC(=O)Nc1cc(N(C)c2nc(-c3c[nH]c4ccccc34)c3sccc3n2)c(OC)cc1N1CCOCC1 [Compound 51, N-[5-[[4-(1H-indol-3-yl)thieno[3,2-d]pyrimidin-2-yl]-methyl-amino]-4-methoxy-2-morpholino-phenyl]prop-2-enamide]	< 30%	–
C=CC(=O)Nc1cc(N(C)c2nc(-c3c[nH]c4ccccc34)c3sccc3n2)c(OC)cc1N(C)CCN(C)C [Compound 53, N-[2-[2-(dimethylamino)ethyl-methyl-amino]-5-[[4-(1H-indol-3-yl)thieno[3,2-d]pyrimidin-2-yl]-methyl-amino]-4-methoxy-phenyl]prop-2-enamide]	> 30%	–
C=CC(=O)Nc1cc(N(C)c2nc(-c3cn(C)c4ccccc34)c3sccc3n2)c(OC)cc1N(C)CCN(C)C [Compound 54, N-[2-[2-(dimethylamino)ethyl-methyl-amino]-4-methoxy-5-[methyl-[4-(1-methylindol-3-yl)thieno[3,2-d]pyrimidin-2-yl]amino]phenyl]prop-2-enamide]	< 30%	–

From patent US10844074B2, “Heterocycle compounds and uses thereof” (ZHEJIANG JIANFENG-YIEN BIOTECHNOLOGY CO., LTD., priority 2015, dated 2020)
